Converted amounts (≈) assume the structure as drawn. Where two headings read alike, the source gives them in different places.
Assays:
[1] = tested on: MDCK-MDR1 cell monolayer; conditions: dog, MDCK-MDR1, 1 h, 3 µM
[2] = tested on: T. b. brucei 427; assay: T. b. brucei 427 growth inhibition (Scynexis); type: cell-based, Trypanosoma brucei brucei; conditions: for Selectivity Index: L929 vs T. b. brucei; for IC50: Trypanosoma brucei, growth inhibition of T. b. brucei 427, mean ± SD
[3] = tested on: L929 mouse fibroblasts; assay: Cytotoxicity toward L929 mouse fibroblasts (Scynexis); type: cell-based
[4] = in vitro; conditions: dog, MDCK-MDR1, Permeability Papp
[5] = tested on: human lung fibroblasts (MRC-5 cells); assay: Cytotoxicity toward MRC-5 cells (University of Antwerp); type: cell-based; conditions: Homo sapiens, MRC5, cytotoxicity toward human lung fibroblasts
[6] = Mouse pharmacokinetics (plasma, whole blood, brain); type: in vivo, male CD-1 mice; conditions: male, CD-1, mouse; for bioavailability: po, from dose normalised AUClast values, read-out: F (oral bioavailability); for Vd: read-out: Vdss; for half-life: read-out: t1/2 (converted)
Method: In order to determine the suitability of the more permeable hits for in vivo efficacy studies, we first measured their aqueous solubilities, and their tendencies to metabolise, following a 1 h incubation with CD-1 mouse liver S9 subcellular fractions.[14] […] This led us to probe their in vivo pharmacokinetic (PK) profiles in mice, examining concentration levels in plasma, whole blood and brain tissue following both intravenous and oral administration (Table 2; for further experimental details, see the Supporting Information). […]
Mouse Pharmacokinetics. The in-life portion of PK testing was carried out by ViviSource Laboratories, Inc., Mass achusetts, USA, and PK samples were anal ysed by Sc ynexis, Inc.
Test compounds (9, 12, 17, and 19) w er e each administered as single doses to groups of 10 male CD-1 mice by bolus intravenous injection or oral gavage. Intravenous dosing (at a nominal dose of 2 mg/kg) emplo yed a solution vehicle comprising either 20% EtOH, 20% propylene gl ycol, and 30% PEG -400 in normal saline (for powders 9, 17, and 19) or 0.5% (hydrox yprop yl)meth ylcellulose, 0.4% Tween 80, 0.5% benz yl alcohol, and 20% DMSO i n deionised water (for oil 12). […]
in 0.5% methylcellulose, 0.08% Tween 80 in water ( ex cept fo r oil 12, where the formulation additionally contained 20% DMSO). […]

[7] = tested on: Leishmania infantum; assay: L. infantum growth inhibition (University of Antwerp); type: cell-based; conditions: Leishmania infantum, mean of 2 to 5 determinations
[8] = tested on: T. b. rhodesiense; assay: T. b. rhodesiense growth inhibition (University of Antwerp); type: cell-based, Trypanosoma brucei rhodesiense; conditions: Trypanosoma brucei, RHODESIENSE, mean of 2 to 5 determinations; read-out: IC50 T. b. rhod
[9] = Kinetic aqueous solubility in pH 7.4 PBS; type: physicochemical
Description: Table 1 Inhibitory potency, metabolic stability, aqueous solubility, and MDCK-MDR1 cell permeability for 15 screening hits against T. b. brucei. | column: Solubility ^c / (µg/mL)

[10] = tested on: T. b. brucei 427; assay: T. b. brucei growth inhibition (University of Antwerp); type: cell-based, Trypanosoma brucei brucei; conditions: Trypanosoma brucei, T. b. brucei 427; mean of 2 to 5 determinations; read-out: IC50 T. b. bruc
[11] = Mouse liver S9 stability; type: in vitro ADME; conditions: CD-1, mouse, mouse liver S9 subcellular fraction, half-life in mouse liver S9 fraction; read-out: Mouse S9 t1/2
[12] = tested on: Trypanosoma cruzi; assay: T. cruzi growth inhibition (University of Antwerp); type: cell-based; conditions: Trypanosoma cruzi, mean of 2 to 5 determinations
[13] = Mouse liver microsomal stability; type: in vitro ADME; conditions: CD-1 mouse liver microsomes
[14] = Human liver microsomal stability; type: in vitro ADME; conditions: pooled human liver microsomes
[15] = brain, intravenous, corrected doses 0.5, 1.1, 2.9, 2.0 mg/kg for 9, 12, 17, 19
[16] = brain, oral, corrected doses 62, 50, 78, 49 mg/kg for 9, 12, 17, 19
[17] = plasma, intravenous, corrected doses 0.5, 1.1, 2.9, 2.0 mg/kg for 9, 12, 17, 19
[18] = plasma, oral, corrected doses 62, 50, 78, 49 mg/kg for 9, 12, 17, 19
[19] = whole blood, intravenous, corrected doses 0.5, 1.1, 2.9, 2.0 mg/kg for 9, 12, 17, 19
[20] = whole blood, oral, corrected doses 62, 50, 78, 49 mg/kg for 9, 12, 17, 19

## O=[N+]([O-])c1cn2c(n1)OC[C@@H](OCC#Cc1ccc(-c3ccc(C(F)(F)F)cc3)cn1)C2 [Compound 16]
[1]
  absolute AQ: ≥ 0.3
[2]
  Selectivity Index: >19
  IC50: 0.53 ± 0.23 mg/L (≈ 1.19 µM)
[3]
  IC50: > 10 mg/L

## O=[N+]([O-])c1cn2c(n1)OCC(COc1ccc(-c3ccc(OC(F)(F)F)cc3)nc1)C2 (centres unmarked) [Compound 18]
[1]
  absolute AQ: ≥ 0.3
[2]
  Selectivity Index: >12
  IC50: 0.83 ± 0.41 mg/L (≈ 1.9 µM)
[3]
  IC50: > 10 mg/L

## O=[N+]([O-])c1cn2c(n1)S(=O)(=O)CC(OCc1ccc(OC(F)(F)F)cc1)C2 (centres unmarked) [Compound 19]
[4]
  Papp at 1 h, 3 µM: 624 nm/s
[5]
  IC50: > 64 µM
[6]; brain
  bioavailability: 43%
[6]; plasma
  bioavailability: 42%
[6]; whole blood
  bioavailability: 37%
[6]; [15]
  AUC(0-t): 1.77 µg·h/mL
  clearance: 0.51 L/h/kg
  Vd: 9.1 L/kg
  half-life: 14 h
[6]; [16]
  AUC(0-t): 18.8 µg·h/mL
  Cmax: 2.4 µg/mL
  Tmax: 4 h
  half-life: 3 h
[6]; [17]
  AUC(0-t): 1.8 µg·h/mL
  clearance: 1 L/h/kg
  Vd: 3.6 L/kg
  half-life: 2.5 h
[6]; [18]
  AUC(0-t): 18.7 µg·h/mL
  Cmax: 2.3 µg/mL
  Tmax: 2 h
  half-life: 2.7 h
[6]; [19]
  AUC(0-t): 2.6 µg·h/mL
  clearance: 0.69 L/h/kg
  Vd: 2.8 L/kg
  half-life: 5.9 h
[6]; [20]
  AUC(0-t): 23.7 µg·h/mL
  Cmax: 3 µg/mL
  Tmax: 2 h
  half-life: 3.3 h
[7]
  IC50: > 64 µM
[8]
  IC50: 0.94 µM
[9]
  solubility: 0.01 mg/mL (≈ 24.6 µM)
[2]
  Selectivity Index: >11
  IC50: 0.9 ± 0.4 mg/L (≈ 2.21 µM)
[2]; T. b. brucei
  weaker potency vs 12 (fold): 5.6 fold
[10]
  IC50: 1.1 µM
[11]
  half-life: 4.97 h
[12]
  IC50: 1.6 µM
[3]
  IC50: > 10 mg/L

## O=[N+]([O-])c1cn2c(n1)[S@@+]([O-])C[C@@H](OCc1ccc(OC(F)(F)F)cc1)C2 [Compound 25]
[13]
  remaining at 1 h: 93%
[5]
  IC50: > 64 µM
[7]
  IC50: > 64 µM
[8]
  IC50: 1.9 µM
[14]
  remaining at 1 h: 93%
[2]
  IC50: 2.8 ± 0.4 mg/L (≈ 7.16 µM)
[10]
  IC50: 5.6 µM
[12]
  IC50: 13 µM
[3]
  IC50: > 10 mg/L

## O=[N+]([O-])c1cn2c(n1)[S@@+]([O-])C[C@H](OCc1ccc(OC(F)(F)F)cc1)C2 [Compound 26]
[13]
  remaining at 1 h: 26%
[5]
  IC50: > 64 µM
[7]
  IC50: 41 µM
[8]
  IC50: 7.3 µM
[14]
  remaining at 1 h: 91%
[2]
  IC50: > 5 mg/L
[10]
  IC50: 34 µM
[12]
  IC50: 6.5 µM
[3]
  IC50: > 10 mg/L

## O=[N+]([O-])c1cn2c(n1)[S@+]([O-])C[C@H](OCc1ccc(OC(F)(F)F)cc1)C2 [Compound 27]
[13]
  remaining at 1 h: 89%
[5]
  IC50: > 64 µM
[7]
  IC50: 48 µM
[8]
  IC50: 4.3 µM
[14]
  remaining at 1 h: 88%
[2]
  IC50: > 5 mg/L
[10]
  IC50: 16 µM
[12]
  IC50: 13 µM
[3]
  IC50: > 10 mg/L
